Assays:
Format in all cases: biochemical
PIP4K2B = target: T1, PIP4K2B (Homo sapiens, UniProt P78356); assay: Trans-FI P kinase assay PIP4K2B (Table 4); details: compounds listed under IC50 bins; read-out: Trans-FI P kinase assays: PIP4K2B IC50
T1 construct: made in house; host or cells: E. coli
T1 sequence (P78356 1-416): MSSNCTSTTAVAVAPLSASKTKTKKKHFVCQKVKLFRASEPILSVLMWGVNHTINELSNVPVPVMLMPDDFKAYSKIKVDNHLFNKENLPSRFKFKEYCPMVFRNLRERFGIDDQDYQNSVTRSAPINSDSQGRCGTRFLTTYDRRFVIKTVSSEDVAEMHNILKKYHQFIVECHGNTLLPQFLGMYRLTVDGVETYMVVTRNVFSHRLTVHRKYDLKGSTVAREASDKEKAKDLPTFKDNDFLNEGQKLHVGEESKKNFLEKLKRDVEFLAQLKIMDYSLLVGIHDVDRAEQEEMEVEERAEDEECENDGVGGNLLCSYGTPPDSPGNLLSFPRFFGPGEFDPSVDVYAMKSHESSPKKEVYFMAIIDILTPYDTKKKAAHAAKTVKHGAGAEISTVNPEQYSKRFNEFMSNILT
Summary of the method: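 Transcreener FI detection (Ex 584/Em 623) of GDP, converted via calibration curve, gives IC50 from residual activity versus log concentration (highest 4.8 μM). Reaction: 80 μM PI5P plus DOPE carrier, 100 μM GTP, 5 nM GST-tagged enzyme, pH 7.3 HEPES with MgCl2 and 5% DMSO, 2 h after 1 h enzyme-compound preincubation at 27° C.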

PIP4K2A [1] = target: T2, PIP4K2A (Homo sapiens, UniProt P48426); assay: ADP-glo kinase assay PIP4K 2A (Table 3); design: made in house; host or cells: E. coli; details: compounds listed under IC50 bins
T2 sequence (P48426 1-406): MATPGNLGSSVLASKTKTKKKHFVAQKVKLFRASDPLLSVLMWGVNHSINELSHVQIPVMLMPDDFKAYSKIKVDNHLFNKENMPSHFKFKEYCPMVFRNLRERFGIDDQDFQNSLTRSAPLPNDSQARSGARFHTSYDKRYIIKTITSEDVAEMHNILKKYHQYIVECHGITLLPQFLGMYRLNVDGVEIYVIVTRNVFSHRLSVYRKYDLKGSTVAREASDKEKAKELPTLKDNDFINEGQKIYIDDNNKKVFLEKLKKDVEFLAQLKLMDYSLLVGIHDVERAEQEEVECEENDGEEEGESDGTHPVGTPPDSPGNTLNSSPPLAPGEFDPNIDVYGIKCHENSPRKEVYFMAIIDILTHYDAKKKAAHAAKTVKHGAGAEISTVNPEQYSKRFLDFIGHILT
Summary of the method: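 ADP-Glo luminescence detected ADP after 1 h RT reaction started by ATP (60 μM solution) on full-length PIP4K2A (4 nM in mix) and PI(5)P diC8 (100 μM in mix), preceded by 15 min enzyme-compound preincubation in MOPS pH 7.2/25 mM MgCl2. Percent inhibition versus DMSO over 10 concentrations fitted for IC50.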

PIP4K2A [2] = target: T2, PIP4K2A; assay: Kinase Assay PIP4K2 A (Table 2); design: 4 nM PIP4K2A (full length protein, SignalChem); purchased SignalChem; details: compounds listed under IC50 bins
Summary of the method: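 ADP-Glo luminescent read-out after 1 h room-temperature kinase reaction, started with 60 μM ATP solution following 15 min compound pre-incubation. Enzyme/substrate mix: 4 nM full-length PIP4K2A plus 100 μM PI(5)P diC8; buffer MOPS pH 7.2 with 25 mM MgCl2 and Tween 20. IC50 from 10-point, 3-fold titrations normalized to DMSO.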

IC50 (PIP4K2B) [nM]	IC50 (PIP4K2A [1]) [nM]	IC50 (PIP4K2A [2]) [nM]	SMILES
10 to 100	1 to 10	1 to 10	CC1(C)C[C@H]2COc3ncc(Nc4ccc(-c5ccc(N6CCCC6=O)c(F)c5)cn4)cc3N2C1=O [Example 258, (S)-2-((5-(3-fluoro-4-(2-oxopyrrolidin-1-yl)phenyl)pyridin-2-yl)amino)-8,8-dimethyl-6,6a,7,8-tetrahydro-9H-pyrido[2,3-b]pyrrolo[1,2-d][1,4]oxazin-9-one]
10 to 100	10 to 100	1 to 10	O=C1CCCN1c1ccc(-c2ccc(Nc3cnc4c(c3)N3C(=O)C(O)C[C@H]3CO4)nc2)cc1F (stereo partly drawn) [Example 267, (6aS)-2-((5-(3-fluoro-4-(2-oxopyrrolidin-1-yl)phenyl)pyridin-2-yl)amino)-8-hydroxy-6,6a,7,8-tetrahydro-9H-pyrido[2,3-b]pyrrolo[1,2-d][1,4]oxazin-9-one]
10 to 100	10 to 100	1 to 10	O=C1CCCN1c1ccc(-c2ccc(Nc3cnc4c(c3)N3C(=O)C(O)C[C@H]3CO4)nc2)cc1 (stereo partly drawn) [Example 268, (6aS)-8-hydroxy-2-((5-(4-(2-oxopyrrolidin-1-yl)phenyl)pyridin-2-yl)amino)-6,6a,7,8-tetrahydro-9H-pyrido[2,3-b]pyrrolo[1,2-d][1,4]oxazin-9-one]
